# Measured values as given in US9029589B2, “Phenyl alkyl carbamate derivative compound and pharmaceutical composition containing the same” (Bio-Pharm Solutions Co., Ltd., priority 2011, dated 2015).
# Key:
# Assay type in all cases: in vivo
# Conditions in all cases: intraperitoneal, at time of maximum effect, 50% of muscle relaxation activity vs vehicle only (100%)
# male mice (ICR) [1] = test: Muscle relaxation activity by grip strength (forelimbs)
# Protocol: (§1) For testing, male mice (ICR) were purchased from ORIENT BIO INC. (Korea), divided into several groups with 6 mice in each group, and were adapted for 4-5 days. The mice having the weight ranging from 19 g to 26 g were employed for the test. The pharmacological effect of the test compounds on muscle relaxation was evaluated by Rotarod test, grip strength test, and muscular force (wire hang) test. All mice were adapted to the test environment at one hour before starting the tests. The pharmacological effects of all the test compounds were evaluated by administration through peritoneal cavity of the mice (10 ul/g, bw).
# A grip strength test using the test animals' forelimbs was performed using an instrument equipped with triangle ring and designed so as to easily grip with the forelimbs of experimental animals, manufactured from Ugo Basile Inc. (Ugo Basile, Model 47106, Italy). The test was conducted before and after administration of the compounds to evaluate the effects thereof. […] The mouse was made to grip the rod with its forelimbs, and its tail was pulled, where the force at which the mouse detached from the rod was recorded. The instrument indicated the force in grams. All of the mice were given 3 opportunities for test, and the 3 highest values among the test opportunities were selected and the mean value was used as the test result. This experimentation was conducted according to the method described in the reference, ‘Nevins et al. (1993) Quantitative grip strength assessment as a means of evaluating muscle relaxation in mice. Psychopharmacol. 110: 92-96’.
# (§2) The results of muscle relaxation activity of the phenyl alkyl carbamate derivative compounds measured in above Experimental Examples 1 to 3 are shown in following Table 3.
# male mice (ICR) [2] = test: Muscle relaxation activity by wire hang
# Protocol: as §1
# This experimentation was conducted using a metal wire of 30 cm in length, which was suspended between two pillars at a height of about 40 cm from the bottom covered with a soft pad. […] Each mouse was made to grip the wire using two forelimbs, and the elapse time before the mouse fell off from the wire to the pad on the bottom was recorded in seconds. Each mouse was given 5 opportunities for this test at an interval of 2 minutes period. The highest 3 records among the test opportunities were selected and the mean value was used as the test result. This experimentation was conducted according to the method described in the reference, ‘Jacqueline N. Crawley (1999) Behavioral phenotyping of transgenic and knockout mice: experimental design and evaluation of general health, sensory functions, motor abilities, and specific behavioral tests. Brain Res. 835: 18-26’.
# as §2
# male mice (ICR) [3] = test: Muscle relaxation activity by residence time on a rotarod rotating at a fixed speed (15 r.p.m.)
# Protocol: as §1
# All the mice to be tested were preliminarily trained for 5 minutes on a rod rotating at the rate of 15 revolutions per a minute. The mice that could not remain on the rod without falling off therefrom for a minimum of 2 minutes were excluded from this testing. After the training, all the mice were allowed to rest for 45-60 minutes. Before the administration of the test compounds, the mice were subjected to a further training for one minute on the rod rotating under the same condition, where the mice falling off from the rod were excluded from this experimentation. […] In case a mouse stays on the rod until the test is finished, the time was recorded as 10 minutes. As test time for evaluation, a maximum of 10 minutes was applied. This experimentation was conducted according to the method described in the reference, ‘Yasuda et al. (2005) Antipyretic, analgesic and muscle relaxant activities of Pueraria isoflavonoids and their metabolites from Pueraria lobata Ohwi—a traditional Chinese drug. Biol. Pharm. Bull. 28: 1224-1228’.
# as §2
SMILES,MR test (ED50) II = Grip strength (male mice (ICR) [1]),MR test (ED50) III = Wire hang (male mice (ICR) [2]),MR test (ED50) I = Fixed 15 r.p.m. Rotarod (male mice (ICR) [3])
"C[C@@H](OC(N)=O)[C@H](OC(N)=O)c1ccccc1Cl [Example 250, 1-(2-chlorophenyl)-(R)-2-carbamoyloxypropyl-(R)-1-carbamate]","225.6 mg/kg, bw",,
"CO[C@@H](c1ccccc1F)[C@H](C)OC(N)=O [Example 135, 1-(2-fluorophenyl)-(S)-1-methoxypropyl-(S)-2-carbamate]","145.6 mg/kg, bw","26.2 mg/kg, bw","60.0 mg/kg, bw"
"CO[C@@H](c1ccccc1I)[C@H](C)OC(N)=O [Example 143, 1-(2-iodophenyl)-(S)-1-methoxypropyl-(S)-2-carbamate]","61.0 mg/kg, bw","33.5 mg/kg, bw","13.0 mg/kg, bw"
"CO[C@@H](c1ccccc1Cl)[C@H](C)OC(N)=O [Example 124, 1-(2-chlorophenyl)-(S)-1-methoxypropyl-(S)-2-carbamate]","66.4 mg/kg, bw","34.8 mg/kg, bw","35.9 mg/kg, bw"
"COCO[C@H](c1ccccc1I)[C@@H](C)OC(N)=O [Example 91, 1-(2-iodophenyl)-(R)-1-methoxymethoxypropyl-(R)-2-carbamate]",,"24.4 mg/kg, bw","30.1 mg/kg, bw"
"COCO[C@@H](c1ccccc1Cl)[C@H](C)OC(N)=O [Example 1, 1-(2-chlorophenyl)-(S)-1-methoxymethoxypropyl-(S)-2-carbamate]","115.2 mg/kg, bw","37.0 mg/kg, bw","55.0 mg/kg, bw"
"C[C@H](OC(N)=O)[C@@H](OC(N)=O)c1ccccc1Cl [Example 247, 1-(2-chlorophenyl)-(S)-1-carbamoyloxypropyl-(S)-2-carbamate]","264.3 mg/kg, bw",,
